Series [1] deals with T1, 7BP protein (RXFP1 extracellular domain attached with a single TM domain) (Homo sapiens, UniProt Q9HBX9).
T1 construct: RXFP1 extracellular domain attached with a single TM domain instead of the native 7 TM domain; single transmembrane domain replacing the native 7 TM domain (heterologous); expressed in transfected cells; host or cells: HEK-293T cells stably expressing 7BP (HEK-7BP)
T1 sequence (Q9HBX9 1-409 limits assumed): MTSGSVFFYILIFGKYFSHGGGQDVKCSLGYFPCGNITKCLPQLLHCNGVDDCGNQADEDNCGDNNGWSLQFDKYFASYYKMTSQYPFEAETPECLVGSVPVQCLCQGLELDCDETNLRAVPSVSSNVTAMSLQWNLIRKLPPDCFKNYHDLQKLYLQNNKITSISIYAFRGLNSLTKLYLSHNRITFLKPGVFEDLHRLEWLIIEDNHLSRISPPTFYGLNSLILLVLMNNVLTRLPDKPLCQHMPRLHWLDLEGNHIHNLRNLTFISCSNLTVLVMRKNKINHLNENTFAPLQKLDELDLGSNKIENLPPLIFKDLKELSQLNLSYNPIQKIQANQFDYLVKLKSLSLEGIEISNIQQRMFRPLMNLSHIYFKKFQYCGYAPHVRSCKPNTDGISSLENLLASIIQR
Put plainly: Eu-H2 relaxin competition binding in HEK-7BP cells, BSA free. The following applies: HEK-293T cells stably expressing 7BP, BSA excluded from buffer, mean ± SEM, n in brackets, one-site fit, read-out: HEK-7BP Binding B.S.A. Free Eu-H2 pKi (n) (converted). As to the method: 3.6. HEK-7BP Binding Assays
HEK-293T cells stably expressing the 7BP protein (HEK-7BP; RXFP1 extracellular domain attached with a single TM domain instead of the native 7 TM domain [30]) were plated in 96-well plates. The medium was aspirated off, and the cells were washed with phosphate-buffered saline (PBS) before competition binding assays were performed with Eu-H2 Relaxin (RXFP1 ligand), as previously described, with the only difference being that BSA was excluded from the binding assay buffer. Competition binding curves for each peptide were performed in triplicate, and each experiment was performed independently at least three times. Fluorescent measurements were carried out on a BMG POLARstar plate reader (BMG Labtech, Melbourne, Australia). Pooled data are presented as mean ± SE of specific binding and are fitted using a one-site binding curve in GraphPad Prism version 8 (GraphPad Inc., San Diego, CA, USA). Statistical analyses were conducted using a one-way analysis of variance with uncorrected Fisher’s least significant difference (LSD) post-hoc analysis in GraphPad Prism version 8.

A short description of series [2]: In vitro serum stability assay. In kind it is in vitro ADME, human. The following applies: 37 °C. Here is the method:
3.7. In Vitro Serum Stability Assay
A total of 400 µL of human serum was taken, and 200 µg peptide dissolved in 100 µL of water was added to human serum at 37 °C. A total of 80 µL of samples was removed at various time points (0 min, 30 min, 60 min, 120 min, 240 min, and 480 min), and 160 µL of acetonitrile was added to precipitate plasma proteins. The solution was then centrifuged at 12,000 rpm for 15 min at 4 °C. A total of 200 µL of supernatant was taken out and mixed with 240 µL of milli-Q water, and each sample was analyzed by RP-HPLC (2 × 80 μL injection), by measuring the area under the peak at the appropriate retention time compared to the peak area of the peptide at time zero minute (100%). Data analysis (n = 3, duplicate) was performed using Prism Version 8.0.2, a non-linear-fit one-phase decay model.

Series [3] relates to BJ3 human dermal myofibroblasts. Put plainly: Myofibroblast differentiation in vitro (α-SMA expression, Western blot). In kind it is cell-based. As to the method: 3.8. Determination of the Effects of Lipidated (L)-B7-33 on Myofibroblast Differentiation In Vitro
To determine if the lipidation of B7-33 prolonged its ability to suppress myofibroblast differentiation in vitro, the effects of the native B7-33 peptide vs. lipidated (L)-B7-33 were compared in BJ3 cells, a human dermal fibroblast cell line. BJ3 fibroblasts were used between passages 15–18 and cultured as described before. […] BJ3 cells were plated in 12-well plates at a density of 1–1.25 × 10^5 cells per well and were then either left untreated or stimulated with transforming growth factor (TGF)-β1 (T; 2 ng/mL) alone (to promote myofibroblast differentiation) or with T + B7-33 (100 ng/mL) or T + L-B7-33 (100 ng/mL) for a 14-day period, in media that was left unchanged over this time period. The cells from duplicate wells per treatment group were isolated from plates at 3-, 5-, 7-, 10- and 14-days post-T ± peptide treatment and extracted for protein using the RIPA lysis buffer (ThermoFisher Scientific; Scoresby, Victoria, Australia). These experiments were performed six independent times.
Half the cell protein (in 10 μL of RIPA buffer) from each sample (that was fully reconstituted in 20 μL of RIPA buffer) was loaded and electrophoresed in separate mini-protean 4–15% precast gels, and analyzed by Western blotting using a primary monoclonal antibody to α-SMA (42 kDa; M0851; […]; Agilent Technologies, Santa Clara, CA, USA). The equivalent loading of protein between samples was confirmed using a rabbit monoclonal glyceraldehyde 3-phosphate dehydrogenase (GAPDH) housekeeping antibody (37 kDa; 2118; 1:1000 dilution; Cell Signaling Technology; Danvers, MA, USA). Each membrane was then subjected to appropriate anti-mouse (7076) or anti-rabbit (7074) horseradish peroxidase-conjugated secondary antibodies (both at a 1:2000 dilution; Cell Signaling Technologies), before proteins were detected using the Clarity Western ECL substrate detection kit and quantified by densitometry with a ChemiDoc MP Imaging System and Image Lab v.6.0 software (both from Bio-Rad Laboratories, Hercules, CA, USA).The density of α-SMA from each sample was corrected for GAPDH protein levels and then expressed relative to the ratio that was measured from the unstimulated control group, which was expressed as 1 in each case. Representative blots of α-SMA and GAPDH were also chosen for presentation in each case.

Each structure is given as a SMILES string. Starred links: 1 amine or outer side, 2 acyl side, 3 side chain; linkers in the order of their positions; H or OH if unused. Non-standard residues stand in square brackets, D forms with d. Residues, ends and D or L forms follow the SMILES beside them. Groups on a side chain read outwards from the residue. *: point of attachment. PEG12 = NCCOCCOCCOCCOCCOCCOCCOCCOCCOCCOCCOCCOCCC(=O)O; γGlu = O=C(O)[C@H](CCC(=O)[*:2])N[*:1]; PEG6 = NCCOCCOCCOCCOCCOCCOCCC(=O)O; Palmitoyl = CCCCCCCCCCCCCCCC(=O)* Bounds are passed on as bounds.

For `CCCCCCCCCCCCCCCC(=O)NCCCC[C@H](NC(=O)[C@H](CCC(=O)O)NC(=O)[C@H](Cc1ccc(O)cc1)NC(=O)[C@@H](N)CCC(=O)O)C(=O)N[C@@H](CCC(=O)O)C(=O)N[C@@H](Cc1ccc(O)cc1)C(=O)N[C@@H](CCC(=O)O)C(=O)NCCOCCOCCOCCOCCC(=O)N[C@H](C(=O)N[C@H](C(=O)N[C@@H](CCCCN)C(=O)N[C@@H](CC(C)C)C(=O)N[C@@H](CO)C(=O)NCC(=O)N[C@@H](CCCNC(=N)N)C(=O)N[C@@H](CCC(=O)O)C(=O)N[C@@H](CC(C)C)C(=O)N[C@H](C(=O)N[C@@H](CCCNC(=N)N)C(=O)N[C@@H](C)C(=O)N[C@@H](CCC(N)=O)C(=O)N[C@H](C(=O)N[C@@H](C)C(=O)N[C@H](C(=O)N[C@@H](CO)C(=O)NCC(=O)N[C@@H](CCSC)C(=O)N[C@@H](CO)C(=O)N[C@H](C(=O)N[C@@H](Cc1c[nH]c2ccccc12)C(=O)N[C@@H](CO)C(=O)N[C@@H](CCCCN)C(=O)N[C@@H](CCCNC(=N)N)C(=O)N[C@@H](CO)C(=O)N[C@@H](CC(C)C)C(N)=O)[C@@H](C)O)[C@@H](C)CC)[C@@H](C)CC)C(C)C)[C@@H](C)CC)C(C)C` [Tag-PEG4-B7-33], the Ki in series [1] was > 10 µM. Turning to `CCCCCCCCCCCCCCCC(=O)N[C@@H](CCC(=O)NCCCC[C@H](NC(C)=O)C(=O)NCCOCCOCCOCCOCCOCCOCCOCCOCCOCCOCCOCCOCCC(=O)N[C@H](C(=O)N[C@H](C(=O)N[C@@H](CCCCN)C(=O)N[C@@H](CC(C)C)C(=O)N[C@@H](CO)C(=O)NCC(=O)N[C@@H](CCCNC(=N)N)C(=O)N[C@@H](CCC(=O)O)C(=O)N[C@@H](CC(C)C)C(=O)N[C@H](C(=O)N[C@@H](CCCNC(=N)N)C(=O)N[C@@H](C)C(=O)N[C@@H](CCC(N)=O)C(=O)N[C@H](C(=O)N[C@@H](C)C(=O)N[C@H](C(=O)N[C@@H](CO)C(=O)NCC(=O)N[C@@H](CCSC)C(=O)N[C@@H](CO)C(=O)N[C@H](C(=O)N[C@@H](Cc1c[nH]c2ccccc12)C(=O)N[C@@H](CO)C(=O)N[C@@H](CCCCN)C(=O)N[C@@H](CCCNC(=N)N)C(=O)N[C@@H](CO)C(=O)N[C@@H](CC(C)C)C(N)=O)[C@@H](C)O)[C@@H](C)CC)[C@@H](C)CC)C(C)C)[C@@H](C)CC)C(C)C)C(=O)O` [Ac K(PalmGlu)-PEG12-B7-33] (Ac-K([γGlu-Palmitoyl])[PEG12]VIKLSGRELVRAQIAISGMSTWSKRSL-NH2), the half-life – broadly, the time needed for the level to fall by half in the phase considered – at 400 µg/mL in series [2] (human serum 400 µL + 200 µg peptide in 100 µL water, samples 0-480 min, acetonitrile precipitation, RP-HPLC peak area vs time zero, one-phase decay fit, n = 3, duplicate) came to 60 min. Besides, the “in vitro serum stability, in words” value in series [2] (human serum, RP-HPLC, n = 3 independent experiments) is “stable in serum over time”. In series [3] (peptide 100 ng/mL + T 2 ng/mL, after 7–14 days of culture), the “α-SMA expression levels versus T-alone-stimulated cells, in words” value is listed as “fully returned to those measured for T-alone-stimulated cells”. Further, the “α-SMA expression level relative to T-alone-stimulated cells” value in series [3] (peptide 100 ng/mL + T 2 ng/mL, after 5 days, media unchanged, 0.5% FCS) is listed as ~ 70%. Also, in series [3] (peptide 100 ng/mL co-administered with T (2 ng/mL), after 72 h of culture, 0.5% FCS, n = 6 in duplicate), the “suppression of TGF-α-induced increase in α-SMA expression” value is given as “almost fully suppressed”.

As to `CCCCCCCCCCCCCCCC(=O)NCCCC[C@H](NC(=O)[C@@H](NC(=O)[C@@H](N)C(C)C)[C@@H](C)CC)C(=O)N[C@@H](CC(C)C)C(=O)N[C@@H](CO)C(=O)NCC(=O)N[C@@H](CCCNC(=N)N)C(=O)N[C@@H](CCC(=O)O)C(=O)N[C@@H](CC(C)C)C(=O)N[C@H](C(=O)N[C@@H](CCCNC(=N)N)C(=O)N[C@@H](C)C(=O)N[C@@H](CCC(N)=O)C(=O)N[C@H](C(=O)N[C@@H](C)C(=O)N[C@H](C(=O)N[C@@H](CO)C(=O)NCC(=O)N[C@@H](CCSC)C(=O)N[C@@H](CO)C(=O)N[C@H](C(=O)N[C@@H](Cc1c[nH]c2ccccc12)C(=O)N[C@@H](CO)C(=O)N[C@@H](CCCCN)C(=O)N[C@@H](CCCNC(=N)N)C(=O)N[C@@H](CO)C(=O)N[C@@H](CC(C)C)C(N)=O)[C@@H](C)O)[C@@H](C)CC)[C@@H](C)CC)C(C)C` [B7-33_9K(Palm)] (H-VIK(Palmitoyl)LSGRELVRAQIAISGMSTWSKRSL-NH2; N-terminus assumed), in series [1], the Ki was > 10 µM. On to `CCCCCCCCCCCCCCCC(=O)NCCCC[C@H](NC(=O)[C@H](CCC(=O)O)NC(=O)[C@H](Cc1ccc(O)cc1)NC(=O)[C@@H](N)CCC(=O)O)C(=O)N[C@@H](CCC(=O)O)C(=O)N[C@@H](Cc1ccc(O)cc1)C(=O)N[C@@H](CCC(=O)O)C(=O)NCCOCCOCCOCCOCCOCCOCCC(=O)N[C@H](C(=O)N[C@H](C(=O)N[C@@H](CCCCN)C(=O)N[C@@H](CC(C)C)C(=O)N[C@@H](CO)C(=O)NCC(=O)N[C@@H](CCCNC(=N)N)C(=O)N[C@@H](CCC(=O)O)C(=O)N[C@@H](CC(C)C)C(=O)N[C@H](C(=O)N[C@@H](CCCNC(=N)N)C(=O)N[C@@H](C)C(=O)N[C@@H](CCC(N)=O)C(=O)N[C@H](C(=O)N[C@@H](C)C(=O)N[C@H](C(=O)N[C@@H](CO)C(=O)NCC(=O)N[C@@H](CCSC)C(=O)N[C@@H](CO)C(=O)N[C@H](C(=O)N[C@@H](Cc1c[nH]c2ccccc12)C(=O)N[C@@H](CO)C(=O)N[C@@H](CCCCN)C(=O)N[C@@H](CCCNC(=N)N)C(=O)N[C@@H](CO)C(=O)N[C@@H](CC(C)C)C(N)=O)[C@@H](C)O)[C@@H](C)CC)[C@@H](C)CC)C(C)C)[C@@H](C)CC)C(C)C` [Tag-PEG6-B7-33], for which, in series [1], the Ki was > 10 µM. In the case of `CCCCCCCCCCCCCCCC(=O)NCCOCCOCCOCCOCCOCCOCCC(=O)N[C@H](C(=O)N[C@H](C(=O)N[C@@H](CCCCN)C(=O)N[C@@H](CC(C)C)C(=O)N[C@@H](CO)C(=O)NCC(=O)N[C@@H](CCCNC(=N)N)C(=O)N[C@@H](CCC(=O)O)C(=O)N[C@@H](CC(C)C)C(=O)N[C@H](C(=O)N[C@@H](CCCNC(=N)N)C(=O)N[C@@H](C)C(=O)N[C@@H](CCC(N)=O)C(=O)N[C@H](C(=O)N[C@@H](C)C(=O)N[C@H](C(=O)N[C@@H](CO)C(=O)NCC(=O)N[C@@H](CCSC)C(=O)N[C@@H](CO)C(=O)N[C@H](C(=O)N[C@@H](Cc1c[nH]c2ccccc12)C(=O)N[C@@H](CO)C(=O)N[C@@H](CCCCN)C(=O)N[C@@H](CCCNC(=N)N)C(=O)N[C@@H](CO)C(=O)N[C@@H](CC(C)C)C(N)=O)[C@@H](C)O)[C@@H](C)CC)[C@@H](C)CC)C(C)C)[C@@H](C)CC)C(C)C` [Palmitic acid-PEG6-B7-33] ({Palmitoyl-PEG6}-VIKLSGRELVRAQIAISGMSTWSKRSL-NH2), the Ki in series [1] was > 10 µM.

The values above are taken from PMC10094921, “A Lipidated Single-B-Chain Derivative of Relaxin Exhibits Improved In Vitro Serum Stability without Altering Activity” (International Journal of Molecular Sciences, 2023).
